Structures can show the parent of a compound that is named as a salt.

Broadly, the melting point is the temperature, or range, at which the solid turns liquid. Molecule `COc1ccc(S(=O)(=O)C(C)(Cc2ccc(OCCN3CCOCC3)cc2)C(=O)NO)cc1` (centres unmarked) (as salt: hydrochloride) [Example 82, 2-(4-methoxy-benzenesulfonyl)-2-methyl-3-[4-(2-mopholinyl-ethoxy)-phenyl]-propionic hydroxyamide hydrochloride] showed a melting point of 98 °C.

Turning to `CCCCCC#CCC(Cc1cccnc1)(C(=O)NO)S(=O)(=O)c1ccc(OC)cc1` (centres unmarked) (as salt: salt) [Example 74, 2-(4-Methoxy-benzenesulfonyl)-2-pyridin-3-ylmethyl-dec-4-ynoic acid hydroxyamide], the melting point is 65 °C.

Take `CC#CCC(Cc1cccnc1)(C(=O)NO)S(=O)(=O)c1ccc(F)cc1` (centres unmarked) (as salt: salt) [Example 76, 2-(4-Fluoro-benzenesulfonyl)-2-pyridin-3-ylmethyl-hex-4-ynoic acid hydroxyamide]: the melting point was 190 °C.

Molecule `CCCCCC#CCC(Cc1cccnc1)(C(=O)NO)S(=O)(=O)c1ccc(F)cc1` (centres unmarked) (as salt: salt) [Example 77, 2-(4-Fluoro-benzenesulfonyl)-2-pyridin-3-ylmethyl-dec-4-ynoic acid hydroxyamide] gave a melting point of 180 to 182 °C.

Molecule `COc1ccc(SC(C)(Cc2ccccc2)C(=O)NO)cc1` (centres unmarked) [Example 1, N-Hydroxy-2-(4-methoxy-phenylsulfanyl)-2-methyl-3-phenyl-propionamide] displayed a melting point of 88 °C. Then `COc1ccc(SC(C(=O)NO)c2ccccc2)cc1` (centres unmarked) [Example 2, N-Hydroxy-2-(4-methoxy-phenylsulfanyl)-2-phenyl-acetamide], with 155 °C; and `COc1ccc(SC(C)(CC=C(C)C)C(=O)NO)cc1` (centres unmarked) [Example 3, 2-(4-Methoxy-phenylsulfanyl)-2,5-dimethyl-hex-4-enoic acid hydroxyamide], with 89 °C; and `COc1ccc(SC(C(=O)NO)C(C)C)cc1` (centres unmarked) [Example 4, N-Hydroxy-2-(4methoxy-phenylsulfanyl)-3-methyl-butyramide], with 119 °C. Then `COc1ccc([S+]([O-])C(C)(CC=C(C)C)C(=O)NO)cc1` (centres unmarked) [Example 6, 2-(4-Methoxy-benzenesulfinyl)-2,5-dimethyl-hex-4-enoic acid hydroxyamide], with 108 °C; and `COc1ccc([S+]([O-])C(C(=O)NO)C(C)C)cc1` (centres unmarked) [Example 7, N-Hydroxy-2-(4-methoxy-benzenesulfinyl)-3-methyl-butyramide], with 163 °C; and `COc1ccc(S(=O)(=O)C(Cc2ccccc2)C(=O)NO)cc1` (centres unmarked) [Example 9, N-Hydroxy-2-(4-methoxy-benzenesulfonyl)-3-phenyl-propionamide], with 180 °C. In turn, `CCCCC(C(=O)NO)S(=O)(=O)c1ccc(OC)cc1` (centres unmarked) [Example 10, 2-(4-Methoxy-benzenesulfonyl)-hexanoic acid hydroxyamide] came in with a melting point of 130 °C. Then `CCCCCCCCCCCCC(C(=O)NO)S(=O)(=O)c1ccc(OC)cc1` (centres unmarked) [Example 11, 2-(4-Methoxy-benzenesulfonyl)-tetradecanoic hydroxyamide], with 114 °C; and `COc1ccc(S(=O)(=O)C(C)(Cc2ccccc2)C(=O)NO)cc1` (centres unmarked) [Example 12, N-Hydroxy-2-(4-methoxy-benzenesulfonyl)-2-methyl-3-phenyl-propionamide], with 58 °C. Then `COc1ccc(S(=O)(=O)C(C)(Cc2ccc(-c3ccccc3)cc2)C(=O)NO)cc1` (centres unmarked) [Example 14, 3-(Biphenyl-4-yl)-N-hydroxy-2-(4-methoxy-benzenesulfonyl)-2-methyl-propionamide], with 177 °C; and `COc1ccc(S(=O)(=O)C(C)(CC2CCCCC2)C(=O)NO)cc1` (centres unmarked) [Example 16, 3-Cyclohexyl-N-hydroxy-2-(4-methoxy-benzenesulfonyl)-2-methyl-propionamide], with 58 °C. To `COc1ccc(S(=O)(=O)C(C)(Cc2ccc(OCCN3CCCCCC3)cc2)C(=O)NO)cc1` (centres unmarked) [Example 18] belongs 68 °C; to `CCCC(Cc1ccc(OCCN2CCCCCC2)cc1)(C(=O)NO)S(=O)(=O)c1ccc(OC)cc1` (centres unmarked) [Example 19, 2-[4-(2-Azepan-1-yl-ethoxy)-benzyl]-2-(4-methoxy-benzenesulfonyl)-pentanoic acid hydroxyamide], 85 °C. `COc1ccc(S(=O)(=O)C(C)(Cc2cccc(OCCN3CCCCC3)c2)C(=O)NO)cc1` (centres unmarked) [Example 22, N-Hydroxy-2-(4-methoxy-benzenesulfonyl)-2-methyl-3-[3-(2-piperidin-1-yl-ethoxy)-phenyl]-propionamide] displayed a melting point of 74 °C.

As for `CCCCC(Cc1ccc(OCCN(CC)CC)cc1)(C(=O)NO)S(=O)(=O)c1ccc(OC)cc1` (centres unmarked) [Example 27, 2-[4-(2-Diethylamino-ethoxy)-benzyl]-2-(4-methoxy-benzenesulfonyl)-hexanoic acid hydroxyamide], the melting point stood at 67 °C. To `COc1ccc(S(=O)(=O)C(C)(Cc2cccc(OCCN3CCOCC3)c2)C(=O)NO)cc1` (centres unmarked) [Example 30, N-Hydroxy-2-(4-methoxy-benzenesulfonyl)-2-methyl-3-[3-(2-morpholin-1-yl-ethoxy)-phenyl]-propionamide] belongs 63 °C; to `COc1ccc(S(=O)(=O)C(C)(CCCCN2C(=O)c3ccccc3C2=O)C(=O)NO)cc1` (centres unmarked) [Example 31, 6-(1,3-Dioxo-1,3-dihydro-isoindol-2-yl)-2(4-methoxy-benzenesulfonyl)-2-methyl-hexanoic acid hydroxyamide], 146 to 148 °C.

The molecule `CCC(Cc1ccc(OCCN2CCOCC2)cc1)(C(=O)NO)S(=O)(=O)c1ccc(OC)cc1` (centres unmarked) [Example 33, N-Hydroxy-2-(4-methoxy-benzenesulfonyl)-2-[4-(2-morpholin-4yl-ethoxy)-benzyl]-butyramide] yielded a melting point of 51 °C.

On to `CCC(Cc1ccc(OCCN2CCCCC2)cc1)(C(=O)NO)S(=O)(=O)c1ccc(OC)cc1` (centres unmarked) [Example 34, N-Hydroxy-2-(4-methoxy-benzenesulfonyl)-2-[4-(2-piperdin-1-yl-ethoxy)-benzyl]-butyramide], for which the melting point is 75 °C. To `CCCCCCC(Cc1ccc(OCCN2CCCCCC2)cc1)(C(=O)NO)S(=O)(=O)c1ccc(OC)cc1` (centres unmarked) [Example 36, 2-[4-(2-Azepan-1-yl-ethoxy)-benzyl]-2-(4-Methoxy-benzenesulfonyl)-octanoic acid hydroxyamide] belongs 65 °C; to `CCCCCCC(Sc1ccc(F)cc1)C(=O)NO` (centres unmarked) [Example 38, 2-(4-Fluoro-phenylsulfanyl)-octanoic acid hydroxyamide], 58 °C; to `COc1ccc(S(=O)(=O)C(Cc2ccc3ccccc3c2)C(=O)NO)cc1` (centres unmarked) [Example 40, N-Hydroxy-2-(4-methoxy-benzenesulfonyl)-3-naphthalen-2-yl-propionamide], 161 to 163 °C. Turning to `Cn1ccnc1S(=O)(=O)C(C)(Cc1ccc(-c2ccccc2)cc1)C(=O)NO` (centres unmarked) [Example 47, 3-Biphenyl-4-yl-2-methyl-2-(1-methyl-1H-imidazole-2-sulfonyl)-propionic acid hydroxyamide], the melting point stood at 112 °C. Then `COc1ccc(S(=O)(=O)C(C)(Cc2ccc(Br)cc2)C(=O)NO)cc1` (centres unmarked) [Example 51, 3-(4-Bromo-phenyl)-N-hydroxy-2-(4-methoxy-benzenesulfonyl)-2-methyl-propionamide], with 86 to 88 °C.

The values above are taken from US6342508B1, “N-hydroxy-2-(Alkyl,Aryl or Heteroaryl sulfanyl, sulfinyl or sulfonyl) 3-substituted alkyl, aryl or heteroarylamides as matrix metalloproteinase inhibitors” (American Cyanamid Company, priority 1997, dated 2002).
